Source: EP4574151A1, “INHIBITORS OF G12V-MUTATED RAS PROTEIN TO TREAT CANCER” (Personather Spolka Z Ograniczona Odpowiedzialnoscia, priority 2023, dated 2025)

How the values were obtained:
NCI-H1975 = test: Toxicity against cancer cells expressing wild type RAS; format: cell-based; details: summary statement
Experimental: The results of in vitro analyses were presented in the examples. Commercially available cancer cell lines were used for the studies, including SW480, SW620, and COR-L23, showing endogenous expression of KRASG12V, as well as a cell line with exogenously introduced KRASG12V mutation (using methods of genetic engineering) - the DK-MGEGFRvIIIKRASG12V line. Additionally, the cancer cell line NCI- H1975, characterized by the expression of wild type RASWT proteins, was also analyzed.

[1] = tested on: NIH/3T3 cell line - immortalized mouse fibroblasts; test: Crystal violet cytotoxicity test in normal cells; format: cell-based; details: summary statement; normal cells NIH/3T3 and PER49
Source text: To evaluate the toxicity of the tested compound on normal cells, the NIH/3T3 cell line - immortalized mouse fibroblasts and normal pericytes (PER49) were used.
(§1) As a research model, colon cancer and lung cancer cell lines (sensitive lines) were used, including SW620, SW480, and COR-L23, respectively, which are characterized by the KRASG12V gene mutation and lack of other alterations in genes belonging to the RAS protein signaling pathway, as well as a stable line of normal cells (mouse fibroblasts), which serve as a platform for evaluating the impact of tested compounds on non-cancer cells. Below is the result for one of the analyzed cell lines with the mutation. Similar differences in IC50 values compared to normal cells were obtained for the other cell lines mentioned above with the RASG12V mutation.
(§2) The effect of molecules on the biology of selected cell lines to assess their cytotoxicity using the IC50 indicator was carried out according to the protocol below: • 1. The cells of the tested lines were seeded in wells of a 96-well plate at specified densities. • 2. After seeding, the cells were subjected to a 24-hour incubation in medium with a 1% and 2.5% addition of serum (sensitive lines) or in medium with a 0.5% addition of serum (normal line). • 3. The cells were exposed to selected molecules at selected concentrations. The control was provided by the culture medium without any added compounds. Concentrations of the tested molecules [uM]: • □ NIH3T3: 500; 250; 125; 62,5; 31,25 • □ SW620: 60; 30; 15; 7,5; 3,75 • 4. After 72 hours of incubation, the culture medium was removed and the cells were washed twice with buffer saline solution (PBS). Then, the cells were incubated for 10 minutes with a 0.1% solution of crystal violet at room temperature (Merck Millipore). • 5. After 10 minutes, the crystal violet solution was removed and the wells of the 96-well plate were washed twice with PBS solution. • 4. 50% ice-cold acetic acid solution was added to each well and incubated again for 10 minutes at room temperature on a shaker at 650 rpm. • 5. Absorbance measurement was performed using a plate reader, at a wavelength of λ = 540 nm

[2] = tested on: SW620 cells (with RASG12V mutation); test: Crystal violet cytotoxicity test (IC50) in KRASG12V positive cells; format: cell-based; details: for toxicity towards KRASG12V positive cells (SW620) compared to normal cells (NIH/3T3): ratio from IC50 values, crystal violet test, 72 hours incubation; for toxicity against cancer cells expressing KRASG12V: summary statement
Source text: IC50 (half-maximal inhibitory concentration) is the concentration value of a tested compound which inhibits biochemical and biological functions of cells in half of the tested population. Determining this indicator is extremely important for assessing the cytotoxicity of molecules with therapeutic potential.
The first step in developing the methodology for determining IC50 was to conduct density tests to determine the appropriate number of cells to use in cytotoxicity tests. The different content of bovine fetal serum in the culture medium was also investigated to rule out any potential impact on the reduction in cell count, regardless of the analyzed molecules.
as §1, §2

BALB/c mice = test: Acute toxicity after oral administration (Acute Toxicity test TG425); format: in vivo; details: female BALB/c mice, oral by gastric probe, 40 mg of substance in corn oil, three mice, observed two weeks
Source text: The study was planned according to Acute Toxicity Test 425 (oral administration) - higher-lower-dose procedure, in accordance with the OECD regulation of October 3, 2008. The test procedure described in these guidelines is useful in minimizing the number of animals needed to estimate the acute toxicity after oral administration of potential drugs. In addition to the LD50 assessment and confidence intervals, the test allows for the observation of signs of toxicity. For this purpose, an experiment was agreed upon with the Local Ethics Committee for Animal Experimentation, using BALB/c mice. The TG425 method allows for the estimation of LD50 values with confidence intervals, and the results allow for the classification of substances according to the global harmonized system for the classification of chemicals that cause acute toxicity.
A sequential test, utilizing a maximum of 5 animals, was applied, which is known as the limit test. A test dose of either 2000 or uniquely 5000 mg/kg can be used. The testing procedures at 2000 and 5000 mg/kg differ slightly (see Sections 23-25 for the limit test at 2000 mg/kg and Sections 26-30 for the limit test at 5000 mg/kg). The selection of a sequential testing plan increases the statistical power, and a deliberate deviation from the limit test rejection procedure was made for compounds with an LD50 near the limit dose; i.e. committing an error on the side of caution. As with any limit test protocol, the probability of correct compound classification will decrease, as the actual LD50 value more closely resembles the limit dose.
• 1. Female Balb/c mice, which were 50-56 days postpartum, were used for the purposes of this experiment. • 2. Mice underwent a 1-week quarantine after being transported to the laboratory. • 3. The studied molecules (PER154A, PER160A, PER170A, PER176A) were suspended according to the TG425 protocol, i.e. 40 mg of substance in […] of laboratory corn oil and orally administered through a plastic gastro probe (used: 20ga (0.9 mm OD x 0.5 mm ID), 38 mm), which was suitable for the size of the animal (17-21 g). The mice were observed and weighed almost daily. • 4. Mouse housing conditions: up to 4 mice per cage; temperature: 23.2 - 23.40°C; humidity: 27.6 - 40.9% relative humidity. • 5. Two weeks later (time counted separately for each mouse), a resection was performed to analyze internal organs for any abnormalities.

Row | Compound | toxicity against cancer cells expressing normal RAS protein (NCI-H1975) | toxicity against normal cells [1] | toxicity towards KRASG12V positive cells (SW620) compared to normal cells (NIH/3T3) [2] | toxicity against cancer cells expressing KRASG12V [2] | safety in acute oral toxicity test (BALB/c mice)
1 | O=C(Nc1ccc2c(c1)OCCO2)c1ccc2c(c1)C1C3CCC(C3)C1C(c1ccccc1)N2 (stereo not shown) [PER154A] | no toxicity | no toxicity | about 85 times | toxicity | safe and safe for mice
2 | O=C(Nc1ccc(F)cc1)c1ccc2c(c1)C1C3CCC(C3)C1C(c1ccccc1)N2 (stereo not shown) [PER160A] | no toxicity | no toxicity | over 36 times | toxicity | safe for mice
